Experimental data: patent US20260158017A1, “KIF18A INHIBITOR” (WIGEN BIOMEDICINE TECHNOLOGY (SHANGHAI) CO., LTD., priority 2021, published 2026)

Target: T1, Recombinant human KIF18A (1-467His-tagged) protein (Homo sapiens, UniProt Q8NI77)
T1 construct: Recombinant human KIF18A (1-467His-tagged) protein; His; made in house
Assay: KIF18A enzyme assay (microtubule-stimulated ATPase activity, ADP-Glo)
Assay type: biochemical
Conditions: 30 nM KIF18A, 75 μM ATP, 30 μg/mL pig microtubules; read-out: Inhibitory activity against KIF18A IC50
Outline: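 Buffer 15 mM Tris pH 7.5, 10 mM MgCl2, 0.01% Pluronic F-68, 1 μM paclitaxel, 30 μg/mL pig microtubules; reactions at room temperature. IC50 from inhibition relative to DMSO.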

T1 sequence (Q8NI77 1-467): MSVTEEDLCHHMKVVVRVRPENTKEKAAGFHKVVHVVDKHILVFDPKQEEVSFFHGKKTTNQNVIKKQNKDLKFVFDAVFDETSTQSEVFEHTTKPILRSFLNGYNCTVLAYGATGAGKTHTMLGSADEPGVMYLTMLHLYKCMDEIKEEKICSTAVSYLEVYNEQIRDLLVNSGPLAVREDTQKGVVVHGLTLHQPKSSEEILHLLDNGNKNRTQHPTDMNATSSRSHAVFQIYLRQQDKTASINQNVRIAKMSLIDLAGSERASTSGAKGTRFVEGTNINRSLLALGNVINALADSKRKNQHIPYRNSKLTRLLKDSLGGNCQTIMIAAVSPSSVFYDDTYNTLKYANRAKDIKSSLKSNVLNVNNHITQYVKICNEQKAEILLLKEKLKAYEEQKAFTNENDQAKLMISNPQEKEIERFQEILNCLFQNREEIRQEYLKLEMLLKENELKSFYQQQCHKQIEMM
T1 sequence (P02550 whole entry partner): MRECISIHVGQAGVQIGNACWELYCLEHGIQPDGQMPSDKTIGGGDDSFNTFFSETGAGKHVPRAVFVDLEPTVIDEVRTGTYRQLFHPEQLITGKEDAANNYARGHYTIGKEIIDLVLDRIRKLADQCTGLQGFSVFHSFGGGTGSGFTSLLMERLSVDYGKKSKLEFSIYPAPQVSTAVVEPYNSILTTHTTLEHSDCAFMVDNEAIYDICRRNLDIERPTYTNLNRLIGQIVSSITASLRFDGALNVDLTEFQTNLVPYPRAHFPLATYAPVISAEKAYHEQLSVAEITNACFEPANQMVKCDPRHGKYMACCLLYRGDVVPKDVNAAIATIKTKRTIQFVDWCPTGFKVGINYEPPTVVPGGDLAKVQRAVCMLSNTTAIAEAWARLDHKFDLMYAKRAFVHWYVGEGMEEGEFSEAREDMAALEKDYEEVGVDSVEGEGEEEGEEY
T1 sequence (P02554 whole entry partner): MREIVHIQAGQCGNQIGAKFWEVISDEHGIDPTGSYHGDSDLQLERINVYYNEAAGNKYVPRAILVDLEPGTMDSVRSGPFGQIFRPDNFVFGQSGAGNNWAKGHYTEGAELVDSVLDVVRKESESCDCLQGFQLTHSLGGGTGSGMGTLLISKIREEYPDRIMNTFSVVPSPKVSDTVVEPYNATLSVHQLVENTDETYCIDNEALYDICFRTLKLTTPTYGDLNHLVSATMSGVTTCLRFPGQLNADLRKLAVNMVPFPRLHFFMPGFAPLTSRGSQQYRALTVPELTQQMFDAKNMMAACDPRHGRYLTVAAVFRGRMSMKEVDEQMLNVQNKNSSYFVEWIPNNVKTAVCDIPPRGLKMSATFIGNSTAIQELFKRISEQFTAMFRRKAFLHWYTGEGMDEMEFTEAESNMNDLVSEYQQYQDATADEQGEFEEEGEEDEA

Row | Structure (SMILES) | IC50 [µM]
1 | COc1ccc(C(=O)Nc2cnc(NS(=O)(=O)CCO)cc2N2CCC3(CC2)CC3)nc1N1CCOCC1 [Compound 364] | ≤ 0.1
2 | COc1ccc(C(=O)Nc2cnc(NS(=O)(=O)[C@@H](C)CO)cc2N2CCC3(CC2)CC3)nc1N1CCC(F)(F)CC1 [Compound 365] | ≤ 0.1
3 | COc1ccc(C(=O)Nc2cnc(NS(=O)(=O)[C@H](C)CO)cc2N2CCC3(CC2)CC3)nc1N1CCO[C@H](C)C1 [Compound 368] | ≤ 0.1
4 | COc1ccc(C(=O)Nc2cnc(S(=O)(=O)NCCO)cc2N2CCC3(CC2)CC3)nc1N1CCC(F)(F)CC1 [Compound 369] | ≤ 0.1
5 | COc1ccc(C(=O)Nc2cnc(S(=O)(=O)NCCO)cc2N2CCC3(CC2)CC3)nc1N1CCO[C@H](C)C1 [Compound 370] | ≤ 0.1
6 | COc1ccc(C(=O)Nc2cnc(S(=O)(=O)NCCO)cc2N2CCC3(CC2)CC3)nc1N1CCO[C@@H](C)C1 [Compound 371] | ≤ 0.1
7 | COc1ccc(C(=O)Nc2cnc(S(=O)(=O)NCCO)cc2N2CCC3(CC2)CC3)nc1N1CC(F)(F)C1 [Compound 372] | ≤ 0.1
8 | COc1ccc(C(=O)Nc2cnc(S(=O)(=O)NCCO)cc2N2CCC3(CC2)CC3)nc1N1CCC2(CC2)C1 [Compound 374] | ≤ 0.1
9 | COc1ccc(C(=O)Nc2cnc(S(=O)(=O)NCCO)cc2N2CCC3(CC2)CC3)nc1OC1CCC1 [Compound 375] | ≤ 0.1
10 | COc1ccc(C(=O)Nc2cnc(S(=O)(=O)NCCO)cc2N2CCC3(CC2)CC3)nc1N1CCC(C)(F)C1 (stereo not shown) [Compound 376] | ≤ 0.1
11 | COc1ccc(C(=O)Nc2cnc(S(=O)(=O)NCCO)cc2N2CCC3(CC2)CC3)nc1N1CCC(F)CC1 [Compound 377] | ≤ 0.1
12 | COc1ccc(C(=O)Nc2cnc(S(=O)(=O)NCCO)cc2N2CCC3(CC2)CC3)nc1N1CC2CC2C1 (stereo not shown) [Compound 378] | ≤ 0.1
13 | COc1ccc(C(=O)Nc2cnc(S(=O)(=O)NCCO)cc2N2CCC3(CC2)CC3)nc1NC(C)(C)CO [Compound 379] | ≤ 0.1
14 | COc1ccc(C(=O)Nc2cnc(S(=O)(=O)NCCO)cc2N2CCC3(CC2)CC3)nc1N1CCOCC1 [Compound 380] | ≤ 0.1
15 | COc1ccc(C(=O)Nc2cnc(S(=O)(=O)N[C@H](C)CO)cc2N2CCC3(CC2)CC3)nc1N1CCC(F)(F)CC1 [Compound 382] | ≤ 0.1
16 | COc1ccc(C(=O)Nc2cnc(S(=O)(=O)N[C@@H](C)CO)cc2N2CCC3(CC2)CC3)nc1N1CCO[C@H](C)C1 [Compound 383] | ≤ 0.1
17 | COc1ccc(C(=O)Nc2cnc(NS(=O)(=O)[C@H](C)CO)cc2N2CCC3(CC2)CC3)nc1N1CCO[C@H](C)C1 [Compound 384] | ≤ 0.1
18 | C[C@@H]1CN(c2cc(NC(=O)c3ccc(NS(=O)(=O)CCO)cc3N3CCC4(CC3)CC4)ccc2OCF)CCO1 [Compound 386] | ≤ 0.1
19 | C[C@H]1CN(c2cc(NC(=O)c3ccc(NS(=O)(=O)CCO)cc3N3CCC4(CC3)CC4)ccc2OCF)CCO1 [Compound 387] | ≤ 0.1
20 | O=C(Nc1ccc(OCF)c(N2CCC3(CC3)C2)c1)c1ccc(NS(=O)(=O)CCO)cc1N1CCC2(CC1)CC2 [Compound 390] | ≤ 0.1
21 | O=C(Nc1ccc(OCF)c(OC2CCC2)c1)c1ccc(NS(=O)(=O)CCO)cc1N1CCC2(CC1)CC2 [Compound 391] | ≤ 0.1

Row | Structure (SMILES) | IC50 [µM]
22 | O=C(Nc1ccc(OCF)c(N2CCC(F)CC2)c1)c1ccc(NS(=O)(=O)CCO)cc1N1CCC2(CC1)CC2 [Compound 393] | ≤ 0.1
23 | O=C(Nc1ccc(OCF)c(N2CCOCC2)c1)c1ccc(NS(=O)(=O)CCO)cc1N1CCC2(CC1)CC2 [Compound 396] | ≤ 0.1
24 | C[C@@H](CO)S(=O)(=O)Nc1ccc(C(=O)Nc2ccc(OCF)c(N3CCC(F)(F)CC3)c2)c(N2CCC3(CC2)CC3)c1 [Compound 397] | ≤ 0.1
25 | O=C(Nc1ccc(OCF)c(N2CCC(F)(F)CC2)c1)c1ccc(S(=O)(=O)NCCO)cc1N1CCC2(CC1)CC2 [Compound 401] | ≤ 0.1
26 | C[C@@H]1CN(c2cc(NC(=O)c3cnc(S(=O)(=O)NCCO)cc3N3CCC4(CC3)CC4)ccc2OCF)CCO1 [Compound 402] | ≤ 0.1
27 | O=C(Nc1ccc(OCF)c(N2CCC(F)CC2)c1)c1ccc(S(=O)(=O)NCCO)cc1N1CCC2(CC1)CC2 [Compound 409] | ≤ 0.1
28 | O=C(Nc1ccc(OCF)c(N2CC3CC3C2)c1)c1ccc(S(=O)(=O)NCCO)cc1N1CCC2(CC1)CC2 (stereo not shown) [Compound 410] | ≤ 0.1
29 | C[C@H](CO)NS(=O)(=O)c1ccc(C(=O)Nc2ccc(OCF)c(N3CCC(F)(F)CC3)c2)c(N2CCC3(CC2)CC3)c1 [Compound 414] | ≤ 0.1
30 | C[C@@H]1CN(c2cc(NC(=O)c3ccc(S(=O)(=O)N[C@@H](C)CO)cc3N3CCC4(CC3)CC4)ccc2OCF)CCO1 [Compound 415] | ≤ 0.1
31 | C[C@H](CO)NS(=O)(=O)c1ccc(C(=O)Nc2ccc(OCF)c(N3CCO[C@H](C)C3)c2)c(N2CCC3(CC2)CC3)c1 [Compound 416] | ≤ 0.1
32 | O=C(Nc1ccc(OCF)c(N2CCC(F)(F)CC2)n1)c1ccc(NS(=O)(=O)CCO)cc1N1CCC2(CC1)CC2 [Compound 417] | ≤ 0.1
33 | C[C@@H]1CN(c2nc(NC(=O)c3ccc(NS(=O)(=O)CCO)cc3N3CCC4(CC3)CC4)ccc2OCF)CCO1 [Compound 418] | ≤ 0.1
34 | O=C(Nc1ccc(OCF)c(N2CC(F)(F)C2)n1)c1ccc(NS(=O)(=O)CCO)cc1N1CCC2(CC1)CC2 [Compound 420] | ≤ 0.1
35 | O=C(Nc1ccc(OCF)c(OCCC(F)(F)F)n1)c1ccc(NS(=O)(=O)CCO)cc1N1CCC2(CC1)CC2 [Compound 421] | ≤ 0.1
36 | O=C(Nc1ccc(OCF)c(N2CCC3(CC3)C2)n1)c1ccc(NS(=O)(=O)CCO)cc1N1CCC2(CC1)CC2 [Compound 422] | ≤ 0.1
37 | O=C(Nc1ccc(OCF)c(OC2CCC2)n1)c1ccc(NS(=O)(=O)CCO)cc1N1CCC2(CC1)CC2 [Compound 423] | ≤ 0.1
38 | CC1(F)CCN(c2nc(NC(=O)c3ccc(NS(=O)(=O)CCO)cc3N3CCC4(CC3)CC4)ccc2OCF)C1 (stereo not shown) [Compound 424] | ≤ 0.1
39 | O=C(Nc1ccc(OCF)c(N2CCC(F)CC2)n1)c1ccc(NS(=O)(=O)CCO)cc1N1CCC2(CC1)CC2 [Compound 425] | ≤ 0.1
40 | O=C(Nc1ccc(OCF)c(N2CC3CC3C2)n1)c1ccc(NS(=O)(=O)CCO)cc1N1CCC2(CC1)CC2 (stereo not shown) [Compound 426] | ≤ 0.1
41 | C[C@@H](CO)S(=O)(=O)Nc1ccc(C(=O)Nc2ccc(OCF)c(N3CCC(F)(F)CC3)n2)c(N2CCC3(CC2)CC3)c1 [Compound 429] | ≤ 0.1

Second part, the molecule after the results:

Row | IC50 [µM] | Structure (SMILES)
42 | ≤ 0.1 | COc1ccc(C(=O)Nc2cnc(NS(=O)(=O)[C@H](C)CO)cc2N2CCC3(CC2)CC3)nc1N1CCC(F)(F)CC1 [Compound 366]
43 | ≤ 0.1 | COc1ccc(C(=O)Nc2cnc(NS(=O)(=O)[C@@H](C)CO)cc2N2CCC3(CC2)CC3)nc1N1CCO[C@H](C)C1 [Compound 367]
44 | ≤ 0.1 | COc1ccc(C(=O)Nc2cnc(S(=O)(=O)NCCO)cc2N2CCC3(CC2)CC3)nc1OCCC(F)(F)F [Compound 373]
45 | ≤ 0.1 | COc1ccc(C(=O)Nc2cnc(S(=O)(=O)N[C@@H](C)CO)cc2N2CCC3(CC2)CC3)nc1N1CCC(F)(F)CC1 [Compound 381]
46 | ≤ 0.1 | O=C(Nc1ccc(OCF)c(N2CC(F)(F)C2)c1)c1ccc(NS(=O)(=O)CCO)cc1N1CCC2(CC1)CC2 [Compound 388]
47 | ≤ 0.1 | O=C(Nc1ccc(OCF)c(OCCC(F)(F)F)c1)c1ccc(NS(=O)(=O)CCO)cc1N1CCC2(CC1)CC2 [Compound 389]
48 | ≤ 0.1 | CC1(F)CCN(c2cc(NC(=O)c3ccc(NS(=O)(=O)CCO)cc3N3CCC4(CC3)CC4)ccc2OCF)C1 (stereo not shown) [Compound 392]
49 | ≤ 0.1 | CC(C)(CO)Nc1cc(NC(=O)c2ccc(NS(=O)(=O)CCO)cc2N2CCC3(CC2)CC3)ccc1OCF [Compound 395]
50 | ≤ 0.1 | C[C@H](CO)S(=O)(=O)Nc1ccc(C(=O)Nc2ccc(OCF)c(N3CCC(F)(F)CC3)c2)c(N2CCC3(CC2)CC3)c1 [Compound 398]
51 | ≤ 0.1 | C[C@@H]1CN(c2cc(NC(=O)c3ccc(NS(=O)(=O)[C@@H](C)CO)cc3N3CCC4(CC3)CC4)ccc2OCF)CCO1 [Compound 399]
52 | ≤ 0.1 | C[C@H]1CN(c2cc(C(=O)Nc3ccc(S(=O)(=O)NCCO)cc3N3CCC4(CC3)CC4)ccc2OCF)CCO1 [Compound 403]
53 | ≤ 0.1 | O=C(Nc1ccc(OCF)c(N2CC(F)(F)C2)c1)c1ccc(S(=O)(=O)NCCO)cc1N1CCC2(CC1)CC2 [Compound 404]
54 | ≤ 0.1 | O=C(Nc1ccc(OCF)c(OCCC(F)(F)F)c1)c1ccc(S(=O)(=O)NCCO)cc1N1CCC2(CC1)CC2 [Compound 405]
55 | ≤ 0.1 | O=C(Nc1ccc(OCF)c(N2CCC3(CC3)C2)c1)c1ccc(S(=O)(=O)NCCO)cc1N1CCC2(CC1)CC2 [Compound 406]
56 | ≤ 0.1 | O=C(Nc1ccc(OCF)c(OC2CCC2)c1)c1ccc(S(=O)(=O)NCCO)cc1N1CCC2(CC1)CC2 [Compound 407]
57 | ≤ 0.1 | CC1(F)CCN(c2cc(NC(=O)c3ccc(S(=O)(=O)NCCO)cc3N3CCC4(CC3)CC4)ccc2OCF)C1 (stereo not shown) [Compound 408]
58 | ≤ 0.1 | CC(C)(CO)Nc1cc(NC(=O)c2ccc(S(=O)(=O)NCCO)cc2N2CCC3(CC2)CC3)ccc1OCF [Compound 411]
59 | ≤ 0.1 | O=C(Nc1ccc(OCF)c(N2CCOCC2)c1)c1ccc(S(=O)(=O)NCCO)cc1N1CCC2(CC1)CC2 [Compound 412]
60 | ≤ 0.1 | C[C@@H](CO)S(=O)(=O)Nc1ccc(C(=O)Nc2ccc(OCF)c(N3CCC(F)(F)CC3)c2)c(N2CCC3(CC2)CC3)c1 [Compound 413]
61 | ≤ 0.1 | C[C@H]1CN(c2nc(NC(=O)c3ccc(NS(=O)(=O)CCO)cc3N3CCC4(CC3)CC4)ccc2OCF)CCO1 [Compound 419]
62 | ≤ 0.1 | CC(C)(CO)Nc1nc(NC(=O)c2ccc(NS(=O)(=O)CCO)cc2N2CCC3(CC2)CC3)ccc1OCF [Compound 427]
63 | ≤ 0.1 | O=C(Nc1ccc(OCF)c(N2CCOCC2)n1)c1ccc(NS(=O)(=O)CCO)cc1N1CCC2(CC1)CC2 [Compound 428]
64 | ≤ 0.1 | C[C@H](CO)S(=O)(=O)Nc1ccc(C(=O)Nc2ccc(OCF)c(N3CCC(F)(F)CC3)n2)c(N2CCC3(CC2)CC3)c1 [Compound 430]
